From patent US20160279088A1, “COMPOSITION FOR PROMOTING DIFFERENTIATION OR PROLIFERATION OF ERYTHROCYTIC CELLS, CONTAINING MONOACETYL DIACYLGLYCEROL COMPOUND AS ACTIVE INGREDIENT” (ENZYCHEM LIFESCIENCES CORPORATION, priority 2013, published 2016)
“Also recorded” adds a separate entry of the source.

Legend:
[1] = GLP toxicity test; cited from earlier work
[2] = tested on: erythrocytes; test: Concentration of erythrocytes in blood of phenyl hydrazine anemia-induced mice; type: in vivo, mouse; conditions: EC-18 orally 5 mg/ml
Protocol: To observe changes in the level of erythrocytes in mouse blood, anemia-induced mice were prepared by administering phenyl hydrazine (PHZ) intraperitoneally into mice weighing […] at a dose of […]. After administering EC-18 orally to the mice at a dose of 5 mg/ml, blood was collected after 3 days and 13 days. For comparison, a normal group that was not treated with phenyl hydrazine and a control group that was treated with olive oil instead of EC-18 were prepared and blood was collected from the groups after 3 days and 13 days. Collected blood was transferred to EDTA bottle 0.5 ml (Minicollect tube, Greiner bio-one, Austria) and the concentration of erythrocytes (number per pl, unit: 10^6) was measured using a flow cytometer, Auto Hematology Analyzer BC-5300 (Mindray, Shenzhen, China). FIG. 5 is a graph showing the concentration of erythrocytes 3 days after phenyl hydrazine treatment in the normal group, the control group (treated with PHZ and olive oil) and the test group (treated with PHZ and EC-18). FIG. 6 is a graph showing the concentration of erythrocytes 13 days after phenyl hydrazine treatment in the normal group, the control group and the test group.

[3] = tested on: cells other than erythroid cells in bone marrow cells; test: FACS analysis of other bone marrow cells (B, T, DC, macrophages, neutrophils, NK) of mice treated with EC-18; type: in vivo, C57BL mouse; conditions: C57BL mice, EC-18 orally 50 mg/kg for seven days, CD19, CD4, CD8, CD11c, CD11b/F4, CD11b/ly, CD122 antibodies
Protocol: (§1) Bone marrow cells were isolated from C57BL mice in the following manner. A total of eight 9-week-old C57 BL mice weighting […] were used in the experiment. Three mice were used as control (C1-3). EC-18 was administered orally to five mice at a dose of 50 mg/kg for seven days. Mice were sacrificed by […] and sterilized with 70% alcohol. The tissue of tibia and femur was cut, skin was removed and muscles were taken out. After removing tibia by breaking it in the opposite direction, the sample was washed with 70% alcohol and placed in PBS. After removing the cartilage between femur and tibia, muscles were removed from femur. Femur was separated from pelvis, washed in 70% alcohol and placed in PBS. In order to isolate bone marrow cells from femur, the pelvic end was cut and after filling the 1 ml syringe with culture media, the needle was injected into the cartilage in the knee side to allow bone marrow cells to be pushed out. The culture media containing bone marrow cells was transferred to a tube and the tube was centrifuged. […]
Bone marrow cells isolated from C57BL mice treated with EC-18 (EC1-EC5, EC-18) and untreated mice (C1-C3, con) were compared. […] Cells were incubated with TER-119, CD19, CD4, CD8, CD11c, CD11b/ly, CD122 antibodies (BD Biosciences-Pharmingen, San Jose, CA, USA) for 1 hour and analyzed using FACscan flow cytometer (Becton Dickinson, San Jose, Calif.).

[4] = tested on: erythroid cells; test: FACS analysis of erythroid cells (TER-119) in bone marrow cells of mice treated with EC-18; type: in vivo, C57BL mouse; conditions: C57BL mice, EC-18 orally 50 mg/kg for seven days; untreated mice 31.2%
Protocol: as §1, with “out.” for “out. The culture media containing bone marrow cells was transferred to a tube and the tube was centrifuged.”
Differentiation and proliferation of erythroid cells in bone marrow cells collected from C57BL mice treated with EC-18 were analyzed by using TER-119 antibody (BD Biosciences-Pharmingen, San Jose, Calif., USA), which is a marker of erythroid cells, and FACS. […] Bone marrow cells isolated by the method of Example 2 were stained by incubating with anti-TER119-FITC antibody and analyzed by using FACscan flow cytometer (Becton Dickinson, San Jose, Calif.).

[5] = sepsis animal model, cecal-ligation-puncture; cited from earlier work

CCCCC/C=C\C/C=C\CCCCCCCC(=O)OC(COC(C)=O)COC(=O)CCCCCCCCCCCCCCC (stereo not drawn) [EC-18, 1-palmitoyl-2-linoleoyl-3-acetylglycerol]
toxicity [1]: no toxicity | concentration of erythrocytes in blood 3 days after PHZ treatment ([2]; vs control (PHZ and olive oil), 3 days): mitigates the reduction of erythrocytes | concentration of erythrocytes in blood 13 days after PHZ treatment ([2]; vs normal group, 13 days): slightly higher than the normal level | ratio of cells other than erythroid cells in bone marrow cells [3]: maintained same; also recorded: not changed | percentage of erythroid cells in bone marrow cells (TER-119, FACS) [4]: 41.7% | survivability ratio of animals [5]: increases survivability ratio
